Source: publication PMC10996005, “Identification and Development of Cyclic Peptide Inhibitors of Hypoxia Inducible Factors 1 and 2 That Disrupt Hypoxia-Response Signaling in Cancer Cells” (Journal of the American Chemical Society, 2024)
Where a SMILES comes first, the peptide text is derived from it. [ ]: non-standard residue; d: D form. Phe(4-NO2) = N[C@@H](Cc1ccc([N+](=O)[O-])cc1)C(=O)O; Bpa = N[C@@H](Cc1ccc(C(=O)c2ccccc2)cc1)C(=O)O

Assays:
[1] = system: RCC associated with VHL disease; set-up: method as in PMID 34453144; conditions: phase 2 clinical trial, all partial responses; cited from earlier work
[2] = system: HIF-driven expression of YFP in T-REx-293 reporter cell line; assay: HRE-YFP reporter assay in hypoxia; type: cell-based, human; conditions: T-Rex-293 HRE-YFP reporter
Text: Following in vitro characterization and optimization of binding, we next assessed the effect of our cyclic peptides in mammalian cells. A cell line with a stably integrated reporter was constructed, in which the expression of yellow fluorescent protein (YFP) was placed under the control of a HRE. Thus, hypoxia would be expected to increase YFP expression (and subsequent fluorescence) in these cells, whereas treatment with a cell-permeable HIF inhibitor would be expected to reduce this fluorescence signal. A fusion cassette was designed containing the YFP gene preceded by three copies of the HRE sequence. This cassette was stably integrated into T-REx-293 cells as previously described.[12] […] The effect of this compound on the viability of T-Rex-293 was assessed with no effect observed at doses up to 75 μM (Figure S9a). […] It should be noted that the relative activity of each compound in this assay will be a combination of its cell permeability and HIF-inhibiting activity. […] We therefore continued to further characterize the cell activity of the 4-iodo-phenylalanine derivative. […]
Generation of HRE-eYFP integrated cell line
The Flp-In System (Fisher) was used to generate a constitutive expression cell line that expresses eYFP under the control of the VEGF HRE. The coding sequence of the yellow fluorescent protein (eYFP) was cloned downstream of the VEGF HRE sequence in the pcDNA5 plasmid, such that the entire cassette was under the regulation of a Tet-On gene expression system. The plasmid was transfected into a human embryonic kidney cell line (Flp-In™-293) and integrated using the manufacturer’s protocol.
Activity Assessment using Flp-In-HRE-eYFP cell line
The Flp-In-HRE-eYFP cells were plated on 24-well plates at 80% confluency and incubated overnight under normoxic conditions. The cells were then treated with different concentrations of compound and incubated for 18 hours under hypoxic conditions. After treatment, the cells were washed with PBS and lysed to extract the total cellular protein. The cell extract was cold centrifuged for 20 minutes at 14,000 RPM. An equal amount of the supernatant from each treatment was plated on a 96-well plate, and the emission of eYFP was measured using a microplate reader. […]

HIF-1α PAS-B domain = molecular target: T1, HIF-1α PAS-B domain (Homo sapiens, UniProt Q16665); assay: MST binding to the PAS-B domain of HIF-1α; conditions: MST; mean ± SEM, n = 2 (n = 1 for most C1 analogues, n = 3 in Figure S2); read-out: KD for HIF-1α PAS-B
T1 construct: made in house
T1 sequence (Q16665 238-349 limits assumed): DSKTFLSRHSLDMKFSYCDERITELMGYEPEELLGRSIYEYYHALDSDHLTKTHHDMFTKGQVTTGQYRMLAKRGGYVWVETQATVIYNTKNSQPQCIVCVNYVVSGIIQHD
Experimental: (§1) All reagents were purchased from Fisher Scientific or Sigma Aldrich UK unless specified otherwise.
(§2) Restriction enzymes and microbiology reagents were purchased from New England Biolabs Inc., Fisher Scientific (UK) or Promega (UK) and were used as directed by the manufacturer. Primers and oligonucleotides were synthesised by Integrated DNA Technologies (UK). DNA sequencing was carried out by Eurofins MWG Operon (Germany).
(§3) Construction of the RTHS and SICLOPPS library, screening, purification of recombinant HIF proteins, and the PLA was conducted as previously described in Miranda et al., J. Am. Chem. Soc., 2013, 135(28); […]
(§4) Protein labelling with MST dye
(§5) Protein was buffer exchanged from storage buffer into labelling buffer (0.1 M NaHCO3, pH 8.5) using a PD spintrap G-25 column (GE healthcare). The protein concentration was then adjusted to 20 µM.
(§6) The commercially sourced MST dye (NanoTemper) was prepared as a 470 µM solution in DMSO, which was then further diluted to 60 µM using labelling buffer. To the protein solution was added an equal volume of dye solution, and the labelling reaction was left for 1 hour in the dark at room temperature.
(§7) The labelled protein was separated from unreacted dye by elution through a PD minitrap G-25 column (GE healthcare). Labelled protein was then aliquoted and stored at -80 °C. Extent of labelling was measured by the absorbance obtained using the UV-vis mode on a NanoDrop ND-1000 Spectrophotometer (NanoDrop Technologies, USA).
(§8) Labelled protein was thawed on ice and diluted to 50 nM in assay buffer containing 50 mM Tris pH 8.0, 150 mM NaCl, 5% (v/v) glycerol, 1 mM TCEP and 0.05% TWEEN-20. The protein solution was then centrifuged at 12000 rpm for 15 minutes at 4 °C and left on ice. Compounds were prepared and serially diluted in DMSO at 10x assay concentration, before diluting to 2x assay concentration in assay buffer.
(§9) The 2x compound solutions were then mixed 1:1 (v/v) with 50 nM labelled protein solution and left to incubate for 1 hour at room temperature. Solutions were then loaded into Monolith NT.115 Premium Capillaries (NanoTemper) and placed in the sample tray. MST experiments were carried out

HIF-2α PAS-B domain = molecular target: T2, HIF-2α PAS-B domain (Homo sapiens, UniProt Q99814); assay: MST binding to the PAS-B domain of HIF-2α; conditions: MST; mean (n = 2) ± SEM
T2 construct: made in house
T2 sequence (Q99814 240-350 limits assumed): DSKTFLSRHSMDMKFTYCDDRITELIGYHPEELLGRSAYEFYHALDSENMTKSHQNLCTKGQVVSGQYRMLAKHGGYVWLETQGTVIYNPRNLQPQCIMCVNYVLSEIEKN
Experimental: as §1, §2, §3, §4, §5, §6, §7, §8, §9

VEGF gene in 786-O cells = assay: qPCR of HIF-2-driven VEGF in 786-O cells; type: cell-based; conditions: 2 μM
Experimental: (§10) The effect of our lead inhibitor on hypoxia-response signaling was measured by qPCR in cancer cell lines. Cells were treated with either 2 μM of an analogue of the HIF-2-specific inhibitor belzutifan, PT2399 (control), or 50 μM of cyclo-CRLII(4-iodo)F, incubated in hypoxia for […], and the levels of the hypoxia-response genes CAIX([41],[42]) and VEGF([43]) were measured by qPCR. We observed a 51% drop in CAIX transcription and a 43% drop in VEGF transcription in hypoxic MCF-7 (breast cancer) cells treated with 50 μM of cyclo-CRLII(4-iodo)F versus hypoxic MCF-7 cells treated with DMSO only (Figure 6e). […] We also observed a 49% drop in CAIX expression in hypoxic HeLa (cervical cancer) cells treated with cyclo-CRLII(4-iodo)F (Figure S9b). […] We observed a 35% drop in HIF-2-driven VEGF transcription in 786-O cells treated with 50 μM of cyclo-CRLII(4-iodo)F compared to a 50% decrease in 786-O cells treated with PT2399. […]
(§11) Realtime PCR (qPCR) Assay
Cells were plated on 6cm dishes at 80% confluency and incubated overnight under normoxic conditions. The cells were then treated with compound and incubated for 18 hours in hypoxic conditions. After treatment, the cells were washed with PBS and lysed under hypoxic conditions. The total RNA was extracted from the cells using a commercial RNA extraction kit (Fisher Scientific) following the manufacturer's instructions. […]

[3] = system: CAIX and VEGF genes in MCF-7 cells; assay: qPCR of hypoxia-response genes in MCF-7 cells; type: cell-based; conditions: hypoxic MCF-7 cells, 2 μM
Experimental: as §10, §11
(§12) Cells were plated on 6cm dishes at 80% confluency and incubated overnight under normoxic conditions. The cells were then treated with compound and incubated for 18 hours in hypoxic conditions. After treatment, the cells were washed with PBS and lysed under hypoxic conditions. The total RNA was extracted from the cells using a commercial RNA extraction kit (Fisher Scientific) following the manufacturer's instructions. A commercial reverse transcription kit (Promega) was used to generate cDNA. The MyTaq™ Mix master mix and appropriate primers targeting CAIX and VEGF were used to perform the qPCR reaction using a qPCR machine (Bio-Rad).

[4] = system: CAIX and VEGF genes in Panc-1 cells; assay: qPCR of hypoxia-response genes in Panc-1 cells; type: cell-based; conditions: hypoxic Panc-1 cells, 2 μM
Experimental: as §10, §11, §12

Row | Kd (HIF-1α PAS-B domain) [µM] | Kd (HIF-2α PAS-B domain) [µM] | SMILES | further results
1 | – | – | CS(=O)(=O)c1ccc(Oc2cc(F)cc(C#N)c2)c2c1[C@H](O)[C@H](F)[C@@H]2F [belzutifan] | patients responded [1]: 49%
2 | – | – | CC[C@H](C)[C@@H]1NC(=O)[C@H](CC(C)C)NC(=O)[C@H](CCCNC(=N)N)NC(=O)[C@H](CS)NC(=O)[C@H](Cc2ccc(C(=O)c3ccccc3)cc2)NC(=O)[C@H]([C@@H](C)CC)NC1=O [(4-Bz)F, cyclo-CRLII(4-Bz)F] (cyclo([Bpa]CRLII)) | relative activity among the 9 most potent cyclo-CRLIIF derivatives on YFP expression [2]: most active
3 | > 100 | > 100 | CC[C@H](C)[C@@H]1NC(=O)[C@H](CC(C)C)NC(=O)[C@H](CCCNC(=N)N)NC(=O)[C@H](CS)NC(=O)[C@H](Cc2ccccc2)NC(=O)[C@H](C)NC1=O [cyclo-CRLIAF] | –
4 | 3.3 ± 0.1 | – | CC[C@H](C)[C@@H]1NC(=O)[C@H](CC(C)C)NC(=O)[C@H](CCCNC(=N)N)NC(=O)[C@H](CS)NC(=O)[C@H](Cc2ccc([N+](=O)[O-])cc2)NC(=O)[C@H]([C@@H](C)CC)NC1=O [NO2, cyclo-CRLII(4-NO2)F] (cyclo(CRLII[Phe(4-NO2)])) | relative activity among the 9 most potent cyclo-CRLIIF derivatives on YFP expression [2]: least active
5 | 12.8 ± 3.6 | 61 ± 9.1 | CC[C@H](C)[C@@H]1NC(=O)[C@H](C)NC(=O)[C@H](CC(C)C)NC(=O)[C@H](CCCNC(=N)N)NC(=O)[C@H](CS)NC(=O)[C@H](Cc2ccccc2)NC1=O [cyclo-CRLAIF] (cyclo(CRLAIF)) | –
6 | 52.7 ± 5.6 | 52.3 ± 6.6 | CC[C@H](C)[C@@H]1NC(=O)[C@H](C)NC(=O)[C@H](CCCNC(=N)N)NC(=O)[C@H](CS)NC(=O)[C@H](Cc2ccccc2)NC(=O)[C@H]([C@@H](C)CC)NC1=O [cyclo-CRAIIF] (cyclo(CRAIIF)) | –
7 | > 100 | > 100 | CC[C@H](C)[C@@H]1NC(=O)[C@H](CC(C)C)NC(=O)[C@H](CCCNC(=N)N)NC(=O)[C@H](C)NC(=O)[C@H](Cc2ccccc2)NC(=O)[C@H]([C@@H](C)CC)NC1=O [cyclo-ARLIIF] (cyclo(ARLIIF)) | –
8 | – | – | N#Cc1cc(F)cc(Oc2ccc(S(=O)(=O)C(F)F)c3c2CC(F)(F)[C@H]3O)c1 [PT2399, reference compound] | decrease in HIF-2-driven VEGF transcription (VEGF gene in 786-O cells): 50%; inhibition of hypoxia-driven expression of CAIX [3]: did not inhibit; inhibition of hypoxia-driven expression of VEGF [3]: did not inhibit; drop in CAIX transcription [4]: 23%; drop in VEGF transcription [4]: 53%
